According to US20250206789A1, “ZINC FINGER DEGRON SEQUENCES” (STICHTING HET NEDERLANDS KANKER INSTITUUT-ANTONI VAN …, priority 2022, published 2025):

Tested on: Jurkat cells
Assay: SynFinger library screen: CD69 expression of CRASH-IT (Zap70-PD1-degron) transduced Jurkat cells with or without lenalidomide, enrichment index from NGS reads
Type: cell-based
Design: key to EI / EI index (enrichment index): enrichment index; low EI = SynFinger with desired properties
Details: Table 6; dual substitutions in first hybrid zinc finger domain; Jurkat, 50 nM lenalidomide vs mock, CD69-HI/CD69-LO; low EI = desired
From the text: […] Jurkat cells were transduced with the SynFinger library (SynFinger containing CRASH-IT switches) at a 12.8% transduction efficiency and sorted for high EGFP expression to enrich transduced cells. For quality control of the SynFinger transduced Jurkat cells, SynFinger sequences were amplified and analyzed by NGS. 10 randomly selected SynFinger encoding DNA sequences or DNA sequences encoding the same SynFinger amino acid sequences but contain 2 nucleotide mismatches due to alternative codon usage were used to assess ability to distinguish true SynFinger sequences from noise in the NGS data. 10/10 SynFinger encoding full-nucleotide sequence match sequences were observed within NGS data whereas the 2 nucleotide mismatch containing sequences were not detected.
Jurkat cells expressing the SynFinger library were treated with 50 nM lenalidomide (a suboptimal dose that activates only ˜50% of cells expressing a CRASH-IT switch containing the parental double hybrid degron in Jurkat cells, as compared to a maximally effective 1000 nM lenalidomide dose) or were mock treated for 24 hours, and subsequently activated with anti-CD3/anti-CD28 antibodies in the presence or absence of 50 nM lenalidomide for 5 hours. Afterwards, cells were stained with IR dye (1:400) and anti-CD69-PE (1:200). Cells were sorted for live (IR dye negative), EGFP high end CD69 high (top 5%) or CD69 low (bottom 5%) expression using Aria Fusion cytometers.
Subsequently, cells were washed with PBS, and cell pellets were frozen at −20° C. until DNA extraction. Genomic DNA was isolated using the DNeasy Blood & Tissue Kit (Qiagen) according to the manufacturer's instructions, using 5×10^6 cells per column. DNA was eluted in 22 μl RNAse free water. Deep sequencing adapters and indexes were added to SynFinger encoding DNA sequences using PCR amplification. Briefly, 3 μg genomic DNA (20 μl), indexed forward and reverse primers (10 μM, 2.5 μl each) and 25 μl NEBNext® High-Fidelity 2×PCR Master Mix were added to the PCR reaction. An optimized PCR reaction (98° C. for 30 s, (98° C. for 10 s, 56° C. for 10 s, 72° C. for 5 s)×25 cycles, 72° C. for 3 min was performed using Eppendorf PCR cyclers.
Indexed PCR products were run on agarose gel, relative DNA concentrations were estimated by measuring band intensity, and 12 indexed PCR reaction products were mixed per MiSeq chip. To increase sequence diversity, samples were mixed with 25% PhiX DNA. In total, 2 MiSeq chips were used (100 bp, single read). To distinguish genuine SynFinger sequences from sequencing errors, results were filtered using a reference list of actual sequences used in SynFinger library design (100% codon match). Sequences with a very low number of reads (sum of all samples below 500 reads) were excluded from analysis.
To identify SynFingers that improve sensitivity of CRASH-IT switches towards lenalidomide while preserving or improving stringency of switch mediated control of T cell activation in the absence of lenalidomide, an enrichment index (EI) value was calculated for each sequence as described below, and SynFingers were ranked according to their EI, with a low EI indicating a SynFinger with desired properties.
CD69-HI and […] read counts from top 100 SynFingers were compared with read counts from the parental double hybrid degron using a two-sided Fisher's exact test to determine enrichment of CD69-HI cells in the presence of lenalidomide and enrichment of CD69-LO cells in the absence of lenalidomide.
To further improve the sensitivity of double hybrid degron towards IMiDs, we performed a high throughput screen using a library of ˜50,200 CRASH-IT variants that encode either single or double amino acid substitutions at the indicated positions of the first hybrid zinc finger sequence, thereby changing 18 amino acids of this zinc finger into any amino acid except cysteine (FIG. 3). […]

Going from “76 (LQCQICGFTCRRKGNLLRHIKLH) [compound 76]” to “77 (LQCEICGFTCRKRGNLLRHIKLH) [compound 77]”, the “EI index (enrichment index)” value rises from 0.03445 to 0.03531.

First: 78 (LQCNICGFTCRQLGNLLRHIKLH) [compound 78]
Second: 79 (LQCEICGFTCRKKGNLLRHIILH) [compound 79]
The “EI index (enrichment index)” value of the first is lower: 0.03544 for the first, 0.03569 for the second.

Going from “80 (LQCEICGFTCRQPGNLLRHYKLH) [compound 80]” to “81 (LQCEICGFTCRQDGRLLRHIKLH) [compound 81]”, the “EI index (enrichment index)” value rises from 0.03685 to 0.03726.

Going from “82 (LQCMICGFTCRQKGNLMRHIKLH) [compound 82]” to “83 (LQCWICGFTCRQKGNMLRHIKLH) [compound 83]”, the “EI index (enrichment index)” value rises from 0.03754 to 0.03839.

First: 84 (LQCEICGFTCRQKGKYLRHIKLH) [compound 84]
Second: 85 (WQCMICGFTCRQKGNLLRHIKLH) [compound 85]
The “EI index (enrichment index)” value of the first is lower: 0.03903 for the first, 0.03924 for the second.

First: 86 (LQCVICGFQCRQKGNLLRHIKLH) [compound 86]
Second: 87 (LQCEICGFTCRQKQRLLRHIKLH) [compound 87]
The “EI index (enrichment index)” value of the first is lower: 0.0393 for the first, 0.0394 for the second.

Going from “88 (LQCEICGFRCRQKGNLLRHIKKH) [compound 88]” to “89 (MQCEICGFTCRQKSNLLRHIKLH) [compound 89]”, the “EI index (enrichment index)” value rises from 0.03947 to 0.04065.

Compared with “90 (LQCEICGFTCRQHGVLLRHIKLH) [compound 90]”, “91 (LQCWICGFTCRQKGNLWRHIKLH) [compound 91]” is higher in “EI index (enrichment index)” value: 0.04107 for the first, 0.04125 for the second.

Going from “92 (LQCEICGFTCRQLRNLLRHIKLH) [compound 92]” to “93 (LQCEICGFTSRQKGRLLRHIKLH) [compound 93]”, the “EI index (enrichment index)” value rises from 0.04129 to 0.04175.

Compared with “94 (MQCVICGFTCRQKGNLLRHIKLH) [compound 94]”, “95 (LQCLICGFTCRQKGNLLRHIRLH) [compound 95]” is higher in “EI index (enrichment index)” value: 0.04229 for the first, 0.04285 for the second.

Going from “96 (LQCEICGFTCRQKLNLLRHIKRH) [compound 96]” to “97 (LQCEICGFTCRKKVNLLRHIKLH) [compound 97]”, the “EI index (enrichment index)” value rises from 0.04285 to 0.04294.

Going from “98 (LQCEICGFKCRQKGNLLRHIKRH) [compound 98]” to “99 (LQCEICGFTCRQKGNLLRHINNH) [compound 99]”, the “EI index (enrichment index)” value rises from 0.04302 to 0.04339.

For “100 (LQCEICGFTCRQKGRLLRHIHLH) [compound 100]”, the “EI index (enrichment index)” value was 0.04461.

Same assay, conditions: single mutation vs dual substitution L1Y/E4V; higher EI = less sensitive to IMiD

With “YQCEICGFTCRQKGNLLRHIKLH [SEQ ID NO: 108, first hybrid zinc finger domain with only one mutation, substitution L1Y]” the “EI value, times higher as compared to SEQ ID. NO 36” value was 10-15 times.

Same assay, conditions: single mutation vs dual substitution; higher EI = less sensitive to IMiD

With “YQCEICGFTCRQKGNLLRHIKLH [SEQ ID NO: 108, first hybrid zinc finger domain with only one mutation, substitution L1Y]” the “EI value, times higher as compared to SEQ ID. NO 100” value was “at least 5 times”.
